Assay results taken from PubChem BioAssay AID1963856 (Molecular Pharmacology Branch, DTP, NCI, 2024).
pIC50: −log10 of the molar value.

Tested on: LG0567-F671-PDC KRAS tumor spheroid viability
Test: Anticancer human tumor LG0567-F671-PDC patient-derived lung adenocarcinoma cell line growth inhibition [KRAS2]
Conditions: spheroids with HUVEC and MSC; for pIC50: curve of first compound; for viability, T/C: stronger effect = lower value
How it was run: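 Combination screen of spheroid viability in tumor-cell co-cultures with endothelial (HUVEC) and mesenchymal stem cell stroma. Each agent was tested in half-log dilutions, topping at clinical Cmax or at 10 microM without a known Cmax.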

[1] = second compound 0.0316 µM, first compound 0.0316 µM
[2] = second compound 0.0316 µM, first compound 0.1 µM
[3] = second compound 0.0316 µM, first compound 0.316 µM
[4] = second compound 0.0316 µM, first compound 1 µM
[5] = second compound 0.0316 µM, first compound 3.16 µM
[6] = second compound 0.0316 µM, first compound 10 µM
[7] = second compound 0.1 µM, first compound 0.0316 µM
[8] = second compound 0.1 µM, first compound 0.1 µM
[9] = second compound 0.1 µM, first compound 0.316 µM
[10] = second compound 0.1 µM, first compound 1 µM
[11] = second compound 0.1 µM, first compound 3.16 µM
[12] = second compound 0.1 µM, first compound 10 µM
[13] = second compound 0.316 µM, first compound 0.0316 µM
[14] = second compound 0.316 µM, first compound 0.1 µM
[15] = second compound 0.316 µM, first compound 0.316 µM
[16] = second compound 0.316 µM, first compound 1 µM
[17] = second compound 0.316 µM, first compound 3.16 µM
[18] = second compound 0.316 µM, first compound 10 µM
[19] = second compound 1 µM, first compound 0.0316 µM
[20] = second compound 1 µM, first compound 0.1 µM
[21] = second compound 1 µM, first compound 0.316 µM
[22] = second compound 1 µM, first compound 1 µM
[23] = second compound 1 µM, first compound 3.16 µM
[24] = second compound 1 µM, first compound 10 µM
[25] = second compound 3.16 µM, first compound 0.0316 µM
[26] = second compound 3.16 µM, first compound 0.1 µM
[27] = second compound 3.16 µM, first compound 0.316 µM
[28] = second compound 3.16 µM, first compound 1 µM
[29] = second compound 3.16 µM, first compound 3.16 µM
[30] = second compound 3.16 µM, first compound 10 µM
[31] = second compound 0.0316 µM, first compound 0.000316 µM
[32] = second compound 0.0316 µM, first compound 0.001 µM
[33] = second compound 0.0316 µM, first compound 0.00316 µM
[34] = second compound 0.0316 µM, first compound 0.01 µM
[35] = second compound 0.1 µM, first compound 0.000316 µM
[36] = second compound 0.1 µM, first compound 0.001 µM
[37] = second compound 0.1 µM, first compound 0.00316 µM
[38] = second compound 0.1 µM, first compound 0.01 µM
[39] = second compound 0.316 µM, first compound 0.000316 µM
[40] = second compound 0.316 µM, first compound 0.001 µM
[41] = second compound 0.316 µM, first compound 0.00316 µM
[42] = second compound 0.316 µM, first compound 0.01 µM
[43] = second compound 1 µM, first compound 0.000316 µM
[44] = second compound 1 µM, first compound 0.001 µM
[45] = second compound 1 µM, first compound 0.00316 µM
[46] = second compound 1 µM, first compound 0.01 µM
[47] = second compound 3.16 µM, first compound 0.000316 µM
[48] = second compound 3.16 µM, first compound 0.001 µM
[49] = second compound 3.16 µM, first compound 0.00316 µM
[50] = second compound 3.16 µM, first compound 0.01 µM
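Further: drug exposure lasted seven days after spheroids formed for three days.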
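Wherever viability, T/C is given: 100% = DMSO vehicle control viability.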

SMILES: CC(C)NCC(C(=O)N1CCN(c2ncnc3c2C(C)CC3O)CC1)c1ccc(Cl)cc1 (stereo not given) + C=CC(=O)N1CCN(c2nc(OCC3CCCN3C)nc3c2CCN(c2cccc4cccc(C)c24)C3)CC1CC#N
- pIC50 (second compound 0.0316 µM): > 7.50
- pIC50 (second compound 0.1 µM): > 7.50
- pIC50 (second compound 0.316 µM): > 7.50
- pIC50 (second compound 1 µM): > 7.50
- pIC50 (second compound 3.16 µM): > 7.50
- viability, T/C [1]: 36%
- viability, T/C [2]: 33.7%
- viability, T/C [3]: 24.6%
- viability, T/C [4]: 22.8%
- viability, T/C [5]: 22.4%
- viability, T/C [6]: 19.8%
- viability, T/C [7]: 28.5%
- viability, T/C [8]: 27.5%
- viability, T/C [9]: 18.6%
- viability, T/C [10]: 20.1%
- viability, T/C [11]: 17%
- viability, T/C [12]: 13.4%
- viability, T/C [13]: 33.9%
- viability, T/C [14]: 29.3%
- viability, T/C [15]: 21%
- viability, T/C [16]: 19.5%
- viability, T/C [17]: 18.6%
- viability, T/C [18]: 15.4%
- viability, T/C [19]: 38.6%
- viability, T/C [20]: 32.3%
- viability, T/C [21]: 24.6%
- viability, T/C [22]: 18.2%
- viability, T/C [23]: 15.3%
- viability, T/C [24]: 13.3%
- viability, T/C [25]: 8.92%
- viability, T/C [26]: 7.61%
- viability, T/C [27]: 4.92%
- viability, T/C [28]: 2.79%
- viability, T/C [29]: 3.43%
- viability, T/C [30]: 0.37%

SMILES: CC(C)n1nc(-c2ccc3oc(N)nc3c2)c2c(N)ncnc21 + C=CC(=O)N1CCN(c2nc(OCC3CCCN3C)nc3c2CCN(c2cccc4cccc(C)c24)C3)CC1CC#N
- pIC50 (second compound 0.0316 µM): > 9.50
- pIC50 (second compound 0.1 µM): > 9.50
- pIC50 (second compound 0.316 µM): > 9.50
- pIC50 (second compound 1 µM): > 9.50
- pIC50 (second compound 3.16 µM): > 9.50
- viability, T/C [31]: 33.2%
- viability, T/C [32]: 28.2%
- viability, T/C [33]: 20.5%
- viability, T/C [34]: 19.3%
- viability, T/C [1]: 13.4%
- viability, T/C [2]: 12.8%
- viability, T/C [35]: 29.1%
- viability, T/C [36]: 27%
- viability, T/C [37]: 18.3%
- viability, T/C [38]: 15.4%
- viability, T/C [7]: 13.7%
- viability, T/C [8]: 10.6%
- viability, T/C [39]: 32.7%
- viability, T/C [40]: 33.5%
- viability, T/C [41]: 21.2%
- viability, T/C [42]: 17.7%
- viability, T/C [13]: 11.1%
- viability, T/C [14]: 10.1%
- viability, T/C [43]: 37.6%
- viability, T/C [44]: 31.6%
- viability, T/C [45]: 25.6%
- viability, T/C [46]: 14.4%
- viability, T/C [19]: 12.5%
- viability, T/C [20]: 9.9%
- viability, T/C [47]: 35%
- viability, T/C [48]: 11.4%
- viability, T/C [49]: 14.5%
- viability, T/C [50]: 5.93%
- viability, T/C [25]: 5.55%
- viability, T/C [26]: 2.27%

SMILES: CC1(C)CCC(CN2CCN(c3ccc(C(=O)NS(=O)(=O)c4ccc(NCC5CCOCC5)c([N+](=O)[O-])c4)c(Oc4cnc5[nH]ccc5c4)c3)CC2)=C(c2ccc(Cl)cc2)C1 + C=CC(=O)N1CCN(c2nc(OCC3CCCN3C)nc3c2CCN(c2cccc4cccc(C)c24)C3)CC1CC#N
- pIC50 (second compound 0.0316 µM): > 7.50
- pIC50 (second compound 0.1 µM): > 7.50
- pIC50 (second compound 0.316 µM): > 7.50
- pIC50 (second compound 1 µM): > 7.50
- pIC50 (second compound 3.16 µM): > 7.50
- viability, T/C [1]: 31.1%
- viability, T/C [2]: 37.4%
- viability, T/C [3]: 35%
- viability, T/C [4]: 39.5%
- viability, T/C [5]: 12.7%
- viability, T/C [6]: 5.63%
- viability, T/C [7]: 30.2%
- viability, T/C [8]: 36.3%
- viability, T/C [9]: 29.7%
- viability, T/C [10]: 28.7%
- viability, T/C [11]: 10.7%
- viability, T/C [12]: 5.62%
- viability, T/C [13]: 34%
- viability, T/C [14]: 32.6%
- viability, T/C [15]: 32%
- viability, T/C [16]: 27.7%
- viability, T/C [17]: 6.23%
- viability, T/C [18]: 2.16%
- viability, T/C [19]: 34.2%
- viability, T/C [20]: 33.5%
- viability, T/C [21]: 33.4%
- viability, T/C [22]: 31.9%
- viability, T/C [23]: 2.97%
- viability, T/C [24]: 0.47%
- viability, T/C [25]: 21.8%
- viability, T/C [26]: 16.1%
- viability, T/C [27]: 8.41%
- viability, T/C [28]: 0.74%
- viability, T/C [29]: 0.13%
- viability, T/C [30]: 0.89%

SMILES: COc1cc2nccc(Oc3ccc(NC(=O)C4(C(=O)Nc5ccc(F)cc5)CC4)cc3)c2cc1OC + C=CC(=O)N1CCN(c2nc(OCC3CCCN3C)nc3c2CCN(c2cccc4cccc(C)c24)C3)CC1CC#N
- pIC50 (second compound 0.0316 µM): > 7.50
- pIC50 (second compound 0.1 µM): > 7.50
- pIC50 (second compound 0.316 µM): > 7.50
- pIC50 (second compound 1 µM): > 7.50
- pIC50 (second compound 3.16 µM): > 7.50
- viability, T/C [1]: 27%
- viability, T/C [2]: 35.9%
- viability, T/C [3]: 23.9%
- viability, T/C [4]: 20.4%
- viability, T/C [5]: 17.8%
- viability, T/C [6]: 52.5%
- viability, T/C [7]: 23.5%
- viability, T/C [8]: 22.9%
- viability, T/C [9]: 26.6%
- viability, T/C [10]: 18.4%
- viability, T/C [11]: 10.2%
- viability, T/C [12]: 45.3%
- viability, T/C [13]: 25.2%
- viability, T/C [14]: 24.8%
- viability, T/C [15]: 28.4%
- viability, T/C [16]: 17.2%
- viability, T/C [17]: 10.2%
- viability, T/C [18]: 41.3%
- viability, T/C [19]: 30.9%
- viability, T/C [20]: 27.6%
- viability, T/C [21]: 23.7%
- viability, T/C [22]: 20.9%
- viability, T/C [23]: 13.3%
- viability, T/C [24]: 33%
- viability, T/C [25]: 13.2%
- viability, T/C [26]: 18.7%
- viability, T/C [27]: 11.4%
- viability, T/C [28]: 17.6%
- viability, T/C [29]: 1.46%
- viability, T/C [30]: 1.76%

SMILES: Cn1ncnc1[C@H]1c2n[nH]c(=O)c3cc(F)cc(c23)N[C@@H]1c1ccc(F)cc1 + C=CC(=O)N1CCN(c2nc(OCC3CCCN3C)nc3c2CCN(c2cccc4cccc(C)c24)C3)CC1CC#N
- pIC50 (second compound 0.0316 µM): > 9.50
- pIC50 (second compound 0.1 µM): > 9.50
- pIC50 (second compound 0.316 µM): > 9.50
- pIC50 (second compound 1 µM): > 9.50
- pIC50 (second compound 3.16 µM): > 9.50
- viability, T/C [31]: 44.2%
- viability, T/C [32]: 41.6%
- viability, T/C [33]: 36.3%
- viability, T/C [34]: 35.6%
- viability, T/C [1]: 32%
- viability, T/C [2]: 29.4%
- viability, T/C [35]: 34%
- viability, T/C [36]: 28.7%
- viability, T/C [37]: 37.9%
- viability, T/C [38]: 27.4%
- viability, T/C [7]: 27.6%
- viability, T/C [8]: 27.9%
- viability, T/C [39]: 34%
- viability, T/C [40]: 35.5%
- viability, T/C [41]: 25.3%
- viability, T/C [42]: 25.8%
- viability, T/C [13]: 29.6%
- viability, T/C [14]: 30.8%
- viability, T/C [43]: 41.2%
- viability, T/C [44]: 32.9%
- viability, T/C [45]: 35.3%
- viability, T/C [46]: 26.7%
- viability, T/C [19]: 26.1%
- viability, T/C [20]: 24.9%
- viability, T/C [47]: 14.8%
- viability, T/C [48]: 16.5%
- viability, T/C [49]: 15.4%
- viability, T/C [50]: 16.1%
- viability, T/C [25]: 10.8%
- viability, T/C [26]: 9.1%
